Reference: patent US8449864B2 (The Board of Trustees of the Leland Stanford Junior …, priority 2006, dated 2013)
Peptide text beside a SMILES is read from it.

What was measured:
PLCs containing PMCs = test: NT degradation by peritoneal lavage cells (PLCs) containing peritoneal mast cells; assay type: cell-based, mouse; settings: Kit+/+ PLCs pre-treated 15 min at 37° C. (chym 100 μM, CFp 10 μM, PCI 10 μg/ml, p03 100 nM); NT 10 μM, 30 min
Protocol: FIG. 5. Neurolysin and carboxypeptidase inhibitors prevent NT degradation by peritoneal mast cells. Kit^+/+ PLCs containing 5×10^4 PMCs were pre-treated for 15 min at 37° C. with one of the following protease inhibitors: chymostatin (chym, chymase inhibitor at 100 μM), CFp-Ala-Ala-Phe-pAB (CFp, […] at 10 μM only for PLCs), potato carboxypeptidase inhibitor (PCI, carboxypeptidase inhibitor at 10 μg/ml) and phosphodiepryl 03 (p03, neurolysin inhibitor at 100 nM for PLCs. Cells were then incubated with NT (10 μM) for 30 min at 37° C. Results are the percentage of NT remaining after incubation with cells compared to the starting concentration of NT (n=4-9 per group).
FIG. 12. (a), PLCs containing 1×10^4 PMCs obtained from either wild type C57BL/6 mice, Ntsr1-deficient (Ntsr1^−/−) mice or Ntsr2-deficient (Ntsr2^−/−) mice were incubated for 2 h with ^3H-5-hydroxytryptamine (3H-serotonin) at 37° C. and stimulated for 15 min at 37° C. with either ET-1 (4 μM) or NT (10 μM). (b), PLCs containing 1×10^4 PMCs obtained from C57BL/6 mice were incubated for 2 h with ^3H-serotonin and stimulated for 15 min with either ET-1 (4 μM) or NT (10 μM). In a separate set of experiments, cells were pre-incubated with BAPTA-AM (Sigma) ([…], 15 min at […]) before the addition of the stimuli. Results are mean ±SEM of 3 experiments. (c), mMC-CPA activity was measured in supernatants obtained from Kit^+/+ PLCs containing 5×10^4 PMCs that were stimulated for 30 min at 37° C. with either ET-1 (4 μM) or NT (10 μM). (d), PLCs containing 5×10^4 PMCs from C57BL/6J mice were pre-treated for 15 min at 37° C. with BAPTA-AM ([…], a Ca^2+ chelator that can reduce MC degranulation) and then incubated with NT (10 μM) for 30 min at 37° C. Results are expressed as the percentage of NT remaining after incubation with cells compared to that in samples of NT incubated in vehicle alone at 37° C. (data were pooled from triplicate determinations in two independent experiments that gave similar results). (e), Expression of mRNA for NT-receptors in the AtT20 neuroendocrine cell line, the mast cell line C1.MC/C57.1, C57BL/6J BMCMCs, Kit^+/+ BMCMCs and peritoneal mast cells purified from Kit^+/+ mice (PMCs).
NT, ET-1, C-reactive protein, and TNF measurements. Concentrations of NT, C-reactive protein, ET-1 and TNF were measured by ELISA (Bachem Peninsula Labs for NT; Biomedica, Vienna for C-reactive protein and ET-1; BD Biosciences for TNF). […] The detection limits for the ELISA kits were: 24 fmol/ml (NT), 0.048 fmol/ml (ET-1), 0.124 ng/ml (C-reactive protein) and […] (human TNF).

PMCs = test: Internalization of rhodamine-labelled peptide by PMCs (flow cytometry, confocal microscopy); assay type: cell-based, mouse
Protocol: FIG. 11. […] P<0.0001 versus corresponding NT- or ET-1-injected groups. […] (b) Flow cytometry analysis and confocal microscopy of C57BL/6 PMCs incubated with NT-rhodamine (50 μM) (red) at 4° C. (0 min) or placed at 37° C. for 5 or 15 min. PMCs were identified among other PLCs by flow cytometry by staining of IgE bound to the MCs (green). […] (c) PLCs containing 5×10^4 PMCs from either C57BL/6, Ntsr1^−/− or Ntsr2^−/− mice were incubated with NT (10 μM) for 30 min at 37° C. Results are expressed as the percentage of NT remaining after incubation with cells compared to that in samples of NT incubated in vehicle alone at 37° C. (data were pooled from triplicate determinations in two independent experiments that gave similar results). (d,e) Changes in MAP vs. baseline levels (=“0”, measured 3 min after injection of 300 μl saline, i.p.) at various times after injection of NT (6 nmol in 300 μl saline, i.p.) (d), and NT levels in the peritoneal fluids of these mice at 30 min after injection (e), in Kit^W/W-v mice that had been engrafted i.p. with BMCMCs of C57BL/6-Ntsr1^+/+ or -Ntsr1^−/− origin. (f) Survival after CLP (50% ligation; single puncture with 22 G needle) in Kit^W/W-v mice that had been engrafted i.p. with BMCMCs of C57BL/6-Ntsr1^+/+ or -Ntsr1^−/− origin.
FIGS. 19a-19f. (a-c) Flow cytometry analysis and (d, e) confocal microscopy of Ntsr+/+ (a, c) or Ntsr1−/−2−/− (b) PMCs pre-loaded with either NT-rhodamine (a, b) or scrambled peptide-rhodamine (c) ([…]) (red) that were placed at 37° C. for the indicated times. Control cells pre-loaded with either NT-rhodamine or scrambled peptide-rhodamine were maintained at 4° C. (“0 min”). PMCs were identified among other peritoneal lavage cells (PLCs) in confocal microscopy by green staining of IgE bound to the PMC surface and in flow cytometry by staining of c-Kit receptors. (f) Fold increase in mean fluorescence intensity by flow cytometry in PMCs versus other (non mast cell) PLCs obtained from Ntsr+/+ mice incubated for 15 min at 37° C. with NT-rhodamine when compared to control cells that were maintained at 4° C. for 15 min. Data are representative of (a-e) or pooled from (f) the three experiments performed, each of which gave similar results.
Flow cytomety and confocal microscopy. Cells were incubated for 16 h in DMEM+10% FCS+2 μg/ml IgE (hybridoma H1-DNP-ε26). Cells were washed and resuspended in DMEM+10% fetal calf serum (FCS)+NT-rhodamine (AnaSpec) (50 μM) and placed at 4° C. for 1 h. Some cells then were placed at 37° C. for 5 or 15 min. IgE Abs bound to PMCs were stained with FITC-conjugated anti-mouse IgE Abs (BD Biosciences). Levels of surface IgE were analyzed by flow cytometry, as described above.

NTR1 = settings: different tissues and cells from various species; cited from earlier work
neurolysin (NLN) = target: T1, neurolysin (NLN) (Mus musculus, UniProt Q91YP2); test: NT degradation by membrane and cytosol preparations of BMCMCs; assay type: biochemical; settings: Pro-Ile 10 mM; NT 10 μM
T1 construct: membrane and cytosol preparations obtained from Kit^+/+ BMCMCs (2×10^6 cells/preparation); endogenous in cells; host or cells: Kit+/+ mouse bone marrow-derived cultured mast cells (BMCMCs), membrane and cytosol fractions
T1 sequence (Q91YP2 38-704): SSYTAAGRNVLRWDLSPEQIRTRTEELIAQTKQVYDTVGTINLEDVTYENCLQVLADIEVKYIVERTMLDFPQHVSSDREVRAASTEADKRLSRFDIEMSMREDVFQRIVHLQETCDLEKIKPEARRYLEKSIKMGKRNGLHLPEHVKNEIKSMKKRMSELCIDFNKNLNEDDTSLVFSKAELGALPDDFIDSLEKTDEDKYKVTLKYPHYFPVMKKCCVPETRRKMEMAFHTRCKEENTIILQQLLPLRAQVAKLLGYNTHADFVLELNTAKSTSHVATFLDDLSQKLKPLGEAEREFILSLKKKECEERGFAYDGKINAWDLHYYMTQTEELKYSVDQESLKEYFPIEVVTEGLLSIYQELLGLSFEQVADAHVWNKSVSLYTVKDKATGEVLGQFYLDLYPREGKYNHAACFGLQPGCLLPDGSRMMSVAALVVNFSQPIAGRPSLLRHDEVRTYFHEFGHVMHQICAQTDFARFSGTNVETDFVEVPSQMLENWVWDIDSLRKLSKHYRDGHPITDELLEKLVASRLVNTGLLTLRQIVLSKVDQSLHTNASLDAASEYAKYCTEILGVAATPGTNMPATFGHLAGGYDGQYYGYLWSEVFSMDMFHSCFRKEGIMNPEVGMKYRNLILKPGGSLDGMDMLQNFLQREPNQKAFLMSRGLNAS
Protocol: FIG. 8. MC-associated neurolysin (NLN) contributes to the MCs' ability to reduce NT-induced hypotension. (a) Identification of NLN in the membrane and cytosol fractions of C1.MC/C57.1 MCs and C57BL/6J BMCMCs. […] Results are expressed as the percentage of NT remaining after incubation with membrane or cytosol preparations compared to that in samples of NT incubated in vehicle alone (n=3). (c, d) Degradation of NT (10 μM) by A23187 (5 μM)-activated Kit^+/+ BMCMCs (2×10^5) that were pre-treated with either empty vector, Neurolysin-short hairpin RNA (NLN-shRNA) or mouse MC carpoxypeptidase A-short hairpin RNA (mMC-CPA-shRNA). Cells were incubated with NT for 30 min at 37° C. Results are expressed as the percentage of NT remaining in the samples compared to that in samples of NT incubated in vehicle alone at 37° C. (n=3). (e) Changes in MAP versus baseline levels (=“0”, measured 3 min after injection of 300 μl saline, i.p.) at various times after injection of NT (6 nmol in 300 μl saline, i.p.) in Kit^W/W-v mice which had been engrafted i.p. with Kit^+/+ BMCMCs treated with either empty vector (empty vector MCs→Kit^W/W-v), NLN-shRNA (NLN-shRNA MCs→Kit^W/W-v) or mMC-CPA-shRNA (mMC-CPA-shRNA MCs→Kit^W/W-v). (f) MCs in the peritoneal cavity (arrows, MCs; scale bars, 100 μm; May Grunwald-modified Giemsa stain) and mesentery (arrows, MCs; scale bars, 100 μm; Czaba stain). […]

Compound: CC(C)C[C@H](NC(=O)[C@@H](NC(=O)N[C@@H](Cc1ccccc1)C(=O)O)[C@@H]1CCN=C(N)N1)C(=O)N[C@H](C=O)Cc1ccccc1 [chymostatin]
- NT degradation by PLCs in presence of protease inhibitor (PLCs containing PMCs): did not prevent NT degradation

Compound: CC(NC(=O)C(C)NC(CCc1ccccc1)C(=O)O)C(=O)NC(Cc1ccccc1)C(=O)Nc1ccc(C(=O)O)cc1 (stereo not drawn) [CFp-Ala-Ala-Phe-pAB]
- NT degradation by PLCs in presence of protease inhibitor (PLCs containing PMCs): did not prevent NT degradation

Compound: NT-rhodamine: rhodamine-labelled NT
- binding and internalization by PMCs (PMCs; C57BL/6 PMCs, 50 μM, 37° C. for 5 or 15 min): bound and internalized
- internalization by PMCs lacking Ntsr1 and Ntsr2 (PMCs; Ntsr1−/−2−/− PMCs, 10 µM, 37° C.): peptide internalization did not occur
- uptake by PMCs compared with non mast cells of the peritoneal cavity (PMCs; Ntsr+/+ PLCs, 15 min at 37° C.): more efficient
- internalization by PMCs (PMCs; Ntsr+/+ PMCs, 10 µM, 37° C.): able to internalize

Compound: PCI: potato carboxypeptidase inhibitor; mouse MC carboxypeptidase A (mMC-CPA) inhibitor (QQHADPICNKPCKTHDDCSGAWFCQACWNSARTCGPYVG; UniProt P01075 1-39, looked up)
- NT degradation by PLCs in presence of protease inhibitor (PLCs containing PMCs): significantly inhibited

Compound: COc1cccc(OC)c1-c1cc(C(=O)NC2(C(=O)O)C3CC4CC(C3)CC2C4)nn1-c1ccnc2cc(Cl)ccc12 (stereo not drawn) [SR48692]
- affinity for NTR1 (NTR1): nanomolar affinity

Compound: CC[C@H](C)[C@H](NC(=O)[C@@H]1CCCN1)C(=O)O [Pro-Ile] (H-Pro-Ile-OH)
- NT degradation by membrane or cytosol preparations of BMCMCs (neurolysin (NLN)): almost completely inhibited
